Data on 2 molecules can be found in patent US20240239786A1, “COMPOSITIONS AND METHODS FOR THE TREATMENT AND PREVENTION OF CANCER” (Yale University, priority 2021, published 2024).

Data set [1] has as its target T1, ribonucleotide reductase (RNR) (Homo sapiens, UniProt P31350).
T1 sequence (P31350 1-389): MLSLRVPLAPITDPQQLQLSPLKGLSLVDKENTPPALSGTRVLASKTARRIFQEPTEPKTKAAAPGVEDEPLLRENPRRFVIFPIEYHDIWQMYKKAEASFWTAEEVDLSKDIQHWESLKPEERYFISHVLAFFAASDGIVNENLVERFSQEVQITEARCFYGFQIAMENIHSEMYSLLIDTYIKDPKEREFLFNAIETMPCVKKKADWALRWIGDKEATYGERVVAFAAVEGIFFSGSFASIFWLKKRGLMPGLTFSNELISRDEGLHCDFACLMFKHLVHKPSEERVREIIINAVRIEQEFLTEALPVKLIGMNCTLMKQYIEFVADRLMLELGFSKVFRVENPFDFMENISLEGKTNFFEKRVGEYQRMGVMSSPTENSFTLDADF
The note with it: fold more potent than hydroxyurea; cited from earlier work.

The conditions of data set [2]: cited from earlier work.
The subject of data set [3] is SKOV3 cells. Put plainly: Clonogenic assay, SKOV3. Format: cell-based. The conditions noted are these: DB4 at 6 μM, 14 days. As for the experimental part:
(§1) Cells were plated for 24 hr, pre-treated with DB4 for 1 hr, and then treated with various concentrations of olaparib for 14 days. Colonies were stained and determined for clonogenic survival.
(§2) To further substantiate the effectiveness of DB4 and mitigate the issue of off-target effects with a higher concentration range of drugs used in the MTS cytotoxicity assay, clonogenic assays were carried out to determine the long-term survival of cells in response to treatments.
(§3) The assay was conducted as described previously (Lin Z P et al., 2014, Molecular Cancer Res, 12:381-393). Cells were plated at various densities in 6-well plates in triplicate. After 24 hr of incubation, cells were treated continuously with various concentrations of olaparib, DB4, or both drugs in combination. After 12-14 days, colonies were fixed/stained with crystal violet solution and counted to determine the percentage of survival using a GelDoc imaging system with QuantityOne software (Bio-Rad, Hercules, CA).

Data set [4] can be described thus: Chemical stability of DB4 in culture medium by mass spectrometry. It is filed as physicochemical. The conditions noted are these: 50 μM, 37° C., 72 hr vs 0 hr. As for the experimental part: DB4 remained mostly active and intact after 72 hr in the culture medium. The dose response curve of DB4 in DNA synthesis inhibition in PEO4 cells was generated as determined by EdU flow cytometric analysis. […] PEO4 cells were treated with these media for 24 hr. The level of DNA synthesis inhibition was determined to interpolate and calculate % DB4 remaining compared with the control at 0 hr. FIG. 5B depicts representative results for remaining DB4 after DB4 (MW=496.1) was added to the culture medium at 50 μM for 0 hr, 24 hr, 48 hr, or 72 hr at 37° C. FIG. 5C depicts representative mass spectrum obtained from mass spectrometry that was run to detect the level of the 496.13 ion at 0 hr. FIG. 5D depicts representative mass spectrum obtained from mass spectrometry that was run to detect the level of the 496.13 ion at 72 hr.
To ensure that DB4 remained chemically stable, the time course study was performed by determining the potency of DB4 following a pre-incubation in the cell-free medium at 37° C. for up to 72 hr. Cells were treated for 24 hr with the medium containing pre-incubated DB4 and DNA synthesis was determined by the EdU incorporation assay.
DB4 was dissolved in DMEM medium at 50 μM and incubated for 0 hr, 24 hr, 48 hr, and 72 hr at 37° C. and flash frozen after incubation. […]

In data set [5] the test system is MDA-MB231 breast cancer cells. Nature of the data set: Clonogenic assay, MDA-MB231. It is filed as cell-based. The note with it: DB4 at 3 μM, 14 days. As for the experimental part:
as §1, §2, §3

Consider `NC(=S)NN=Cc1ncccc1N` [triapine, 3-aminopyridine-2-carboxaldehyde-thiosemicarbazone, reference compound], for which the “potency relative to the RNR inhibitor hydroxyurea” value in data set [1] was 1,000 times. The half-life in plasma entry in data set [2] was “about 2 hr”.
On to `C=CCn1c(SCc2cccc(Cl)c2)nnc1C1CCN(Cc2nc3ccccc3s2)CC1` [DB4, 2-[(4-{4-allyl-5-[(3-chlorobenzyl)thio]-4H-1,2,4-triazol-3-yl}-1-piperidinyl)methyl]-1,3-benzothiazole], for which the “clonogenic survival in the presence of olaparib” value in data set [3] and in data set [5] was “effectively reduced the clonogenic survival” each time. The “level of DB4 by mass spectrometry” value in data set [4] was “remained similar to that of the 0 hr control”.
